Measured values as given in patent US7346384B2, “Method of magnetic resonance investigation of a sample using a nuclear spin polarised MR imaging agent” (GE Healthcare AS, priority 2000, dated 2008).

Tests used:
water solubility = type: physicochemical
[1] = T1 relaxation time of the reporter compound; type: physicochemical; details: high T1 agent; 15N storage nucleus; no field or temperature printed for this value

[2H]C([2H])(F)C([2H])([2H])[N+](C)(C)C [molecule (I)]
water solubility (water solubility): good
T1 value [1]: about 3 minutes
